Experimental data published in patent US6436922B1, “5,11-dihydrobenzo[b,e][1,4]oxazepine derivatives and pharmaceutical compositions containing the same” (Ajinomoto Co., Inc., priority 1996, dated 2002).

Key:
[1] = Decrease in the body temperature of rats; assay type: in vivo; conditions: rat, 100 mg/kg p.o.; for change in body temperature 1 hour: rectal temperature after 1 hour; for change in body temperature 2 hour: rectal temperature after 2 hours; for change in body temperature 5 hour: rectal temperature after 5 hours
Procedure: Decrease in the body temperature of rats:
A suspension of 100 mg/kg of a test compound in 0.5% methyl cellulose was orally administered to each of Crj:CD male rats (from 7 to 8 weeks old), and the body temperature (temperature of the rectum) after 1, 2 or 5 hours was measured using a thermistor thermometer, and the difference in the body temperature between the compound of the present invention and the comparative substance is shown in Table 4.

[2] = system: tail artery pressure; assay: Decrease in the blood pressure in rats (tail cuff method); assay type: in vivo; conditions: rat, dose causing 20 mmHg decrease in blood pressure 1 hour after administration
Procedure: Decrease in the blood pressure in rats:
This test was conducted by the tail cuff method. That is, each of Crj:CD male rats (from 8 to 9 weeks old) had been warmed to fully expand the tail artery. The tail artery pressure was then measured immediately before, and 1 hour after, the oral administration of the test compound using a non-invasive blood pressure measuring device. In this test, nicardipine and Compound A were used as comparative substances. With respect to the decrease in the blood pressure, a dose at which to cause the decrease in the blood pressure by 20 mmHg from the blood pressure immediately before the administration was calculated as ED20 from the regression line of the decrease (mmHg) in the blood pressure relative to the logarism of the dose of the test compound. As is clear from Tables 2-1 and 2—2, the compound of the present invention has a higher selectivity for the intestinal tract than Compound A, and it can be an excellent agent of improving an abnormal moving function of the digestive tract.

[3] = system: WRS-induced defecation; assay: Inhibition of acceleration of stool excretion in a wrap restraint stress (WRS) model; assay type: in vivo; conditions: rat, p.o. 30 minutes before stress, stool over 1 hour, Litchfield-Wilcoxon method
Procedure: In-vivo test [effect of inhibiting acceleration of stool excretion in a wrap restraint stress (WRS) model]:
The test was conducted by the method of William et al. [Gastroenterology, 94, 611 (1988)]. That is, each of Crj:CD male rats (from 6 to 7 weeks old) was slightly etherized, and the fore shoulder, the foreleg and the chest thereof were wrapped with a paper tape to apply stress thereto. The rat was allowed to stand under stress for 1 hour, and the amount of stool excreted during that time was measured. The test compound was orally administered to the rat 30 minutes before applying the stress thereto. The normal group was etherized, and then allowed to stand for 1 hour without applying stress thereto. Thereafter, the amount of stool excreted was measured. In this test, nicardipine and Compound A were used as comparative substances. The 50% inhibition dose (ID50) relative to the increase in the […] of stool owing to WRS was calculated by the Litchfield-Wilcoxon method, and the results are shown in Table 2-1. In addition, and inhibition of test compounds (lomg/kg, p.o.) expressed as a percentage of control were determined and the results were shown in Table 2—2.

[4] = Acute toxicity test; conditions: ddy, mouse, in vivo, ip; male mice, i.p., mortality observed for 7 days; read-out: 50% lethal dose (LD50, mg/kg, i.p.)
[5] = system: rat pupillary diameter; assay: Anticholinergic activity by mydriasis of rats; assay type: in vivo; conditions: for rat pupillary diameter (mm) 1 hour / rat pupillary diameter (mm) 2 hours / rat pupillary diameter (mm) 6 hours: 300 mg/kg p.o.; for rat pupillary diameter (mm) 1 hour: after 1 hour; for rat pupillary diameter (mm) 2 hours: after 2 hours; for rat pupillary diameter (mm) 6 hours: after 6 hours; for rat pupillary diameter (mm) before: before administration of 300 mg/kg p.o.
Procedure: Anticholinergic activity by mydriasis of rats: […] The diameter of the pupil after 1, 2 or 6 hours was measured using a stereoscopic microscope of 5x magnification.

[6] = system: Crj:CD male rats; assay: Test for a toxicity in continuous administration for 1 week; assay type: in vivo; conditions: rat, 100 mg/kg p.o. once daily for 1 week
Procedure: Test for a toxicity in continuous administration for 1 week:
A suspension of 100 mg/kg of the compound in Example 2 or 12 in 0.5% methyl cellulose was orally administered to each of Crj:CD male rats (6 weeks old) continuously for 1 week at a rate of one administration per day to observe general conditions, to measure the body weight, to conduct biochemical inspection of the blood, to measure the weights of the internal organs and to conduct pathological inspection.

Cl.c1ccc(CCN2CCC[C@@H]2CN2c3ccccc3COc3ccccc32)cc1
melting point: 179 to 182 °C

Cl.Fc1ccc(CCN2CCC[C@@H]2CN2c3ccccc3COc3ccccc32)cc1 [Example 4, (R)-(+)-5,11-dihydro-5-[1-(4-fluorophenethyl)-2-pyrrolidinylmethyl]dibenzo[b,e][1,4]oxazepine hydrochloride]
change in body temperature 1 hour [1]: −0.3 | change in body temperature 2 hour [1]: −0.2 | change in body temperature 5 hour [1]: +0.1 | Hypotensive effect (ED20, mg/kg, p.o.) [2]: >1000 mg/kg | Inhibitory effect on WRS-induced defecation (ID50, mg/kg, p.o.) [3]: 1.8 mg/kg | LD50 at 7 days [4]: > 200 mg/kg | rat pupillary diameter (mm) 1 hour [5]: 0.70 mm | rat pupillary diameter (mm) 2 hours [5]: 0.57 mm | rat pupillary diameter (mm) 6 hours [5]: 0.70 mm | rat pupillary diameter (mm) before [5]: 0.80 mm

COc1ccc(CCN2CCC[C@@H]2CN2c3ccccc3COc3ccccc32)cc1.Cl [Example 2, (R)-(+)-5,11-dihydro-5-[1-(4-methoxyphenethyl)-2-pyrrolidinylmethyl]-dibenzo[b,e][1,4]oxazepine hydrochloride]
change in body temperature 1 hour [1]: 0 | change in body temperature 2 hour [1]: −0.1 | change in body temperature 5 hour [1]: −0.2 | Hypotensive effect (ED20, mg/kg, p.o.) [2]: >1000 mg/kg | Inhibitory effect on WRS-induced defecation (ID50, mg/kg, p.o.) [3]: 3.1 mg/kg | toxicity findings (general conditions, body weight, blood biochemistry, organ weights, pathology) [6]: no remarkable change was observed | LD50 at 7 days [4]: 175 mg/kg | rat pupillary diameter (mm) 1 hour [5]: 0.90 mm | rat pupillary diameter (mm) 2 hours [5]: 0.77 mm | rat pupillary diameter (mm) 6 hours [5]: 0.97 mm | rat pupillary diameter (mm) before [5]: 0.97 mm

COc1ccc(CCN2CCC[C@H]2CN2c3ccccc3CSc3ccccc32)cc1.Cl [Compound A, reference compound]
change in body temperature 1 hour [1]: −0.5 | change in body temperature 2 hour [1]: −0.6 | change in body temperature 5 hour [1]: −0.5 | Hypotensive effect (ED20, mg/kg, p.o.) [2]: >100 mg/kg | Inhibitory effect on WRS-induced defecation (ID50, mg/kg, p.o.) [3]: 34.8 mg/kg | LD50 at 7 days [4]: 162 mg/kg | rat pupillary diameter (mm) 1 hour [5]: 2.18 mm | rat pupillary diameter (mm) 2 hours [5]: 2.27 mm | rat pupillary diameter (mm) 6 hours [5]: 2.62 mm | rat pupillary diameter (mm) before [5]: 0.85 mm

COC(=O)C1=C(C)NC(C)=C(C(=O)OCCN(C)Cc2ccccc2)C1c1cccc([N+](=O)[O-])c1 (centres unmarked) [nicardipine, reference compound]
Hypotensive effect (ED20, mg/kg, p.o.) [2]: 4.0 mg/kg | Inhibitory effect on WRS-induced defecation (ID50, mg/kg, p.o.) [3]: 6.8 mg/kg

COc1ccc(CCN2CCC[C@H]2CN2c3ccccc3COc3ccccc32)cc1.Cl [Example 12, (S)-(−)-5,11-dihydro-5-[1-(4-methoxyphenethyl)-2-pyrrolidinylmethyl]dibenzo[b,e][1,4]oxazepine hydrochloride]
toxicity findings (general conditions, body weight, blood biochemistry, organ weights, pathology) [6]: no remarkable change was observed | LD50 at 7 days [4]: > 280 mg/kg

Cl.N#Cc1ccc(CCN2CCC[C@@H]2CN2c3ccccc3COc3ccccc32)cc1
melting point: 109 to 112 °C

COc1ccc(CCN2CCC[C@H]2CN2c3ccccc3COc3ccccc32)cc1OC.Cl
melting point: 106 to 109 °C

Cl.c1ccc2c(c1)COc1ccccc1N2C[C@@H]1CCCN1CCc1ccc2c(c1)OCO2
melting point: 158 to 162 °C

COc1cccc(CCN2CCC[C@H]2CN2c3ccccc3COc3ccccc32)c1.Cl
melting point: 164 to 166 °C

COc1ccc(CCN2CCC[C@@H]2CN2c3ccccc3COc3ccccc32)cc1OC.Cl
melting point: 106 to 109 °C
